Data on 1 compound can be found in patent US20020110830A1, “VEGF responsive cell-based assay for determining VEGF bioactivity” (priority 2001, published 2002).

For the assay, the target named is T1, FLK-1 VEGF receptor (Mus musculus, UniProt P35918).
T1 construct: expressed in transfected cells; host or cells: HeLa (HLR-ELK-1, Stratagene) stably co-transfected with the FLK-1 expression vector; clone #5
Put plainly: VEGF responsive luciferase assay in VEGF-receptor stable transfected HLR-ELK-1 cell line (clone #5). In kind it is cell-based. The following applies: FIG. 9. An excerpt: The assay of the present invention utilizes a stable VEGF responsive cell line which comprises HeLa cells which have been stably transfected with a reporter vector having an expressible reporter element and a DNA binding element disposed adjacent thereto. Preferably, the reporter vector includes a gene encoding a detectable gene product which is disposed downstream of a basic promoter element, preferably a TATA box, which is joined to the binding element which is preferably a GAL4 binding element. […]
In general, utilizing known signal transduction relationships and/or pathways, a sample to be assayed for VEGF bioactivity is placed in a container containing the stable cell line as described above. […] Activated FLK-1, which is a known VEGF receptor, then activates MAP kinase (Kroll and Waltenberger, J. Biol. Chem., 1997:272:32521-32527; Doanes et. al., Biochem. Biophys. Res. Comm., 1999;255:545-548. The activated MAP kinase phosphorylates the fusion trans-activation protein (GAL4 DNA binding domain [dbd] fused with ELK-1). The phosphorylated fusion protein binds to the GAL4 DNA binding site of the reported vector activating luciferase expression. Luciferase expression can be detected utilizing techniques well-known in the art. The presence or expression of luciferase indicates VEGF activity in the sample. […]

T1 sequence (P35918 20-1345): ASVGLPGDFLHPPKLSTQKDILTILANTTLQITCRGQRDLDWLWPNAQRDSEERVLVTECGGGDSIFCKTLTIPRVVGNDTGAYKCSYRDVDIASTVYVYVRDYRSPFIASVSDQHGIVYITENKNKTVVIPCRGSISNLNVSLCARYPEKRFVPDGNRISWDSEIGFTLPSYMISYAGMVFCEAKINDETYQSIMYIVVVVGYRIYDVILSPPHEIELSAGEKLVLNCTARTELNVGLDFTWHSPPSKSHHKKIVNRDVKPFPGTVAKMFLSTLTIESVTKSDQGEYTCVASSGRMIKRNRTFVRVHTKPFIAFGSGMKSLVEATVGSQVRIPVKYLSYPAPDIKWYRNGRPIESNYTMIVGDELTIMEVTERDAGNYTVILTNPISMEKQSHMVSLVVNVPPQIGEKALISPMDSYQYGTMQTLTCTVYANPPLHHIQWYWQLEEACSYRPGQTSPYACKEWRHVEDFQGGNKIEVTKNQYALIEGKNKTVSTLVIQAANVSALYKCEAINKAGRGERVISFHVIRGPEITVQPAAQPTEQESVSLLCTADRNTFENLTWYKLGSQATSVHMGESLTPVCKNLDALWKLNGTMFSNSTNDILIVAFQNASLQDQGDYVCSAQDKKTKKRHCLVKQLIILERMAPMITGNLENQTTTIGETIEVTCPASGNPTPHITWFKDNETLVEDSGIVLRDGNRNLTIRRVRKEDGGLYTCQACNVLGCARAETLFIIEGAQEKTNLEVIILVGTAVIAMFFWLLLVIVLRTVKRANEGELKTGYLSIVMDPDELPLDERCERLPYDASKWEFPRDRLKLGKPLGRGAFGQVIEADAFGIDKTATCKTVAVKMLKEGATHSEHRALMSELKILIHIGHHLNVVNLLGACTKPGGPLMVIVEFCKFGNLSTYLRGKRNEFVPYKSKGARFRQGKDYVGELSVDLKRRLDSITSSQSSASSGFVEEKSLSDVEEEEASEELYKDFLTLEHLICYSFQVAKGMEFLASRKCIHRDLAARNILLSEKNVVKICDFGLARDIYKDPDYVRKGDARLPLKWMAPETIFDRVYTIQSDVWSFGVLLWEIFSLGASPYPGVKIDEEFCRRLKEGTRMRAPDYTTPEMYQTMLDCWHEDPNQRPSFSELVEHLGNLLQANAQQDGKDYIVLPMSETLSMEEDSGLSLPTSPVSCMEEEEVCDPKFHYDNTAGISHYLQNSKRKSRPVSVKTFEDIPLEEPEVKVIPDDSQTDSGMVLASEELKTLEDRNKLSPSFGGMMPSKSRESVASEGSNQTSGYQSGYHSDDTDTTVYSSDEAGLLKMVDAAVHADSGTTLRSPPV

As to `COc1cc2c(Nc3ccc(Br)cc3F)ncnc2cc1OCCn1ccnn1` [ZD4190], the “effect on VEGF stimulation of luciferase expression” value is “affected luciferase expression in a dose-response manner”.
